ChEMBL document CHEMBL1130476, “Molecular modeling of the interaction of trypanocide guanyl hydrazones with B-DNA” (1997)

system: Trypanosoma cruzi; assay: Inhibitory dose for selectivity against Trypanosoma cruzi; type: functional; details: read-out: ID50 (the source's name)

IC50 [µM]	Structure (SMILES)
4800	COc1cc(/C=N/NC(=N)N)ccc1O
205	N=C(N)N/N=C/c1ccccc1
22.5	COc1cccc(/C=N/NC(=N)N)c1OC
877	N=C(N)N/N=C/c1cccc([N+](=O)[O-])c1O
23.7	N=C(N)N/N=C/c1cc2c(cc1Br)OCO2
27.4	N=C(N)N/N=C/c1ccc(Cl)cc1

Structure (SMILES)	IC50 [µM]
N=C(N)N/N=C/c1ccc2c(c1)OCO2	274
